Counter-ions that a name gives are not always drawn. Like-named read-outs stand apart in the source and are kept apart here.
Experiments:
[1] = biological target: human recombinant AChE (hAChE; E.C. 3.1.1.7) (Homo sapiens, UniProt P22303); assay: biochemical; conditions: for IC50: human recombinant AChE, Ellman's method, phosphate buffer pH 7.4, mean of three independent determinations ± SD; for SI (selectivity index for hAChE): ratio of IC50 hBChE towards IC50 hAChE
[2] = biological target: human plasmatic BChE (hBChE; E.C. 3.1.1.8) (Homo sapiens, UniProt P06276); assay: biochemical
Sequence of human plasmatic BChE (hBChE; E.C. 3.1.1.8) (P06276 29-602): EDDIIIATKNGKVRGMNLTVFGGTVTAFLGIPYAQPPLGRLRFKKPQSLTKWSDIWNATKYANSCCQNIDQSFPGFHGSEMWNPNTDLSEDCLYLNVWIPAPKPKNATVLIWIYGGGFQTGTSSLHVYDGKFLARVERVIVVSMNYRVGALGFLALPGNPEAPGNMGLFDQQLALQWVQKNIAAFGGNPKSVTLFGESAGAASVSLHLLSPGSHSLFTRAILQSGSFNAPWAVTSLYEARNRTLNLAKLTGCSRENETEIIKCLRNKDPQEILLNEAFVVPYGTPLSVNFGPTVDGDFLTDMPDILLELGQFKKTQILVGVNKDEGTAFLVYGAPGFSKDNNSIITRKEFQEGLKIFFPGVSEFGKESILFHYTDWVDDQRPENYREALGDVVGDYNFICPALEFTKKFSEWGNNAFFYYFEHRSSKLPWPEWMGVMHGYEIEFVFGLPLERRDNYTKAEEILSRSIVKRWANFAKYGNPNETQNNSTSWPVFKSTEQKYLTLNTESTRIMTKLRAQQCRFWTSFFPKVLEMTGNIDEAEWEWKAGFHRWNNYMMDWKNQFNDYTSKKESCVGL

[3] = human plasmatic BChE, Ellman's method, phosphate buffer pH 7.4, mean of three independent determinations ± SD, read-out: IC50 (µM) ± SD hBChE

Sequence of human recombinant AChE (hAChE; E.C. 3.1.1.7) (P22303 32-614): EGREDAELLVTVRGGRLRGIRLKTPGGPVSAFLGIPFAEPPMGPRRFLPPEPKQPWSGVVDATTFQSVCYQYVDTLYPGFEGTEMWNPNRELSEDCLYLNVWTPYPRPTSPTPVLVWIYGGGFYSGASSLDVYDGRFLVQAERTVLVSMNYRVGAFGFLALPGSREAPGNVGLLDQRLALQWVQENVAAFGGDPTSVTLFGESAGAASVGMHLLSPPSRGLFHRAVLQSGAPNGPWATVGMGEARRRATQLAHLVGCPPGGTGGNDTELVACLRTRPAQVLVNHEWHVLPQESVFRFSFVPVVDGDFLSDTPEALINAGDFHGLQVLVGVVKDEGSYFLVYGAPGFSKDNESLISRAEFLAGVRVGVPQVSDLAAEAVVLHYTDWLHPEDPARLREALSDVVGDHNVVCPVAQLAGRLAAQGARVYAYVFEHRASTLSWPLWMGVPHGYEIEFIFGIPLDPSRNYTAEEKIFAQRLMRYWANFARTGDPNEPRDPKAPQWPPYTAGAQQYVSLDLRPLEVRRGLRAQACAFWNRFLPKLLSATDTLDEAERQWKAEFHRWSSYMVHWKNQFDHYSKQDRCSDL

Row | Structure (SMILES) | IC50 [1] | SI (selectivity index for hAChE) [1] | IC50 [2, 3] | IC50 [2]
1 | COc1ccc2nc3c(c(NCCN)c2c1)CCCC3 [Compound 3, N-(7-Methoxy-1,2,3,4-tetrahydroacridin-9-yl)ethane-1,2-diamine] | 5.32 ± 1.04 µM | 12.1 | 64.4 ± 10.8 µM | 
2 | COc1ccc2nc3c(c(NCCCN)c2c1)CCCC3 [Compound 4, N-(7-Methoxy-1,2,3,4-tetrahydroacridin-9-yl)propane-1,3-diamine] | 1.93 ± 0.38 µM | 25.8 | 49.8 ± 8.31 µM | 
3 | COc1ccc2nc3c(c(NCCCCN)c2c1)CCCC3 [Compound 5, N-(7-Methoxy-1,2,3,4-tetrahydroacridin-9-yl)butane-1,4-diamine] | 1.42 ± 0.28 µM | 6.5 | 9.22 ± 1.54 µM | 
4 | COc1ccc2nc3c(c(NCCCCCN)c2c1)CCCC3 [Compound 6, N-(7-Methoxy-1,2,3,4-tetrahydroacridin-9-yl)pentane-1,5-diamine] | 3.44 ± 0.67 µM | 8.6 | 29.6 ± 4.95 µM | 
5 | COc1ccc2nc3c(c(NCCCCCCN)c2c1)CCCC3 [Compound 7, N-(7-Methoxy-1,2,3,4-tetrahydroacridin-9-yl)hexane-1,6-diamine] | 0.21 ± 0.04 µM | 51.6 | 10.8 ± 1.81 µM | 
6 | COc1ccc2nc3c(c(NCCCCCCCN)c2c1)CCCC3 [Compound 8, N-(7-Methoxy-1,2,3,4-tetrahydroacridin-9-yl)heptane-1,7-diamine] | 0.86 ± 0.17 µM | 8.4 | 7.26 ± 1.21 µM | 
7 | COc1ccc2nc3c(c(NCCCCCCCCN)c2c1)CCCC3 [Compound 9, N-(7-Methoxy-1,2,3,4-tetrahydroacridin-9-yl)octane-1,8-diamine] | 0.47 ± 0.09 µM | 21.4 | 10.1 ± 1.68 µM | 
8 | S=C=NC12CC3CC(CC(C3)C1)C2 [Compound 10, 1-Adamantyl isothiocyanate, reference compound] | 25 ± 4.87 µM | 3.9 |  | 96.9 ± 16.2 µM
9 | COc1ccc2nc3c(c(NCCNC(=S)NC45CC6CC(CC(C6)C4)C5)c2c1)CCCC3 [Compound 11, 1-Adamantyl-3-(2-(7-methoxy-1,2,3,4-tetrahydroacridin-9-yl-amino)ethyl)thiourea 2,3-dihydroxysuccinate] | 5.02 ± 0.98 µM | 1.2 | 6.02 ± 1.01 µM | 
10 | COc1ccc2nc3c(c(NCCCNC(=S)NC45CC6CC(CC(C6)C4)C5)c2c1)CCCC3 [Compound 12] | 0.53 ± 0.1 µM | 2.6 | 1.39 ± 0.23 µM | 
11 | COc1ccc2nc3c(c(NCCCCNC(=S)NC45CC6CC(CC(C6)C4)C5)c2c1)CCCC3 [Compound 13] | 2.04 ± 0.39 µM | 0.5 | 0.98 ± 0.16 µM | 
12 | COc1ccc2nc3c(c(NCCCCCNC(=S)NC45CC6CC(CC(C6)C4)C5)c2c1)CCCC3 [Compound 14] | 0.47 ± 0.09 µM | 0.2 | 0.11 ± 0.02 µM | 
13 | COc1ccc2nc3c(c(NCCCCCCNC(=S)NC45CC6CC(CC(C6)C4)C5)c2c1)CCCC3 [Compound 15] | 2.09 ± 0.4 µM | 0.2 | 0.33 ± 0.05 µM | 
14 | COc1ccc2nc3c(c(NCCCCCCCNC(=S)NC45CC6CC(CC(C6)C4)C5)c2c1)CCCC3 [Compound 16, 1-Adamantyl-3-(2-(7-methoxy-1,2,3,4-tetrahydroacridin-9-yl-amino)heptyl)thiourea 2,3-dihydroxy-succinate] | 3.47 ± 0.67 µM | 0.04 | 0.15 ± 0.02 µM | 
15 | COc1ccc2nc3c(c(NCCCCCCCCNC(=S)NC45CC6CC(CC(C6)C4)C5)c2c1)CCCC3 [Compound 17] | 1.62 ± 0.31 µM | 0.2 | 0.26 ± 0.04 µM | 
16 | NC12CC3CC(CC(C3)C1)C2 [amantadine, 1-adamantylamine hydrochloride, reference compound] |  |  | 103 ± 17.1 µM | 

Reference: paper PMC6270602 (Molecules, 2013)
